Read-outs that look alike come from different tables or passages of the source.
Experiments:
[1] = in vivo; cited from earlier work
[2] = Solubility of naltrexone in adhesive matrix; format: physicochemical
From the text: […]. Adhesive matrices having such Hildebrand solubility parameters are typically, although not necessarily polyacrylate copolymers. […].

[3] = in vivo, cited from earlier work

Structure (SMILES): Oc1ccc2c3c1O[C@H]1[C@H](O)CC[C@@]4(O)[C@@H](C2)N(CC2CC2)CC[C@]314 [6-β-naltrexol]
- mean elimination half-life [1]: thirteen

Structure (SMILES): O=C1CC[C@@]2(O)[C@H]3Cc4ccc(O)c5c4[C@@]2(CCN3CC2CC2)[C@H]1O5 [naltrexone]
- solubility of naltrexone in adhesive ([2]; in DURO-TAK® 87-900A): 5.851 g/100 g of polymer
- solubility of naltrexone in adhesive ([2]; in DURO-TAK® 87-2510): 3.067 g/100 g of polymer
- safety statement [3]: major liver toxin
- safety statement ([3]; listed as Naltrexone): very few and minor side effects
